Assay results reported in PubChem BioAssay AID2060484 (Molecular Pharmacology Branch, DTP, NCI, 2025).

System: SUM149PT spheroids with HUVEC/MSC, viability
Assay: Anticancer human tumor SUM149PT cell line growth inhibition [GQUAD];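 note: spheroids exposed to drugs for seven days before readout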;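 for viability, T/C: percent viability relative to DMSO vehicle control taken as 100%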
Details: for IC50: curve of first compound; for viability, T/C: stronger effect = lower value
Source text: DNA G-quadruplex Stabilizer Agents in Combinations in Complex Spheroids
A high-throughput screen of multi-cell type tumor spheroids was designed to identify active combinations of DNA G-quadruplex stabilizer agents and targeted small molecules. Complex spheroids include a stromal component modeled by human endothelial cells (HUVEC) and fibroblasts modeled by human mesenchymal stem cells (MSCs). The concentration ranges selected for each drug and investigational agent were based upon clinically achievable concentrations if the clinical Cmax of the agent was known.
Compounds. The drugs and investigational agents: pidnarulex (CX-5461; NSC782164), APTO-253 (NSC789042), BRACO-19 (NSC847499), peposertib (NSC802822), ceralasertib (NSC780249), elimusertib (NSC800525), camonsertib (NSC841442), AZD-1390 (NSC803789), olaparib (NSC753686), talazoparib (NSC767125), ART-558 (NSC835418), sotorasib (NSC818433), MRTX-1133 (NSC836407), SN-38 (NSC673596), topotecan (NSC609699), etoposide (NSC141540), doxorubicin (NSC123127), gemcitabine (NSC613327), 5-fluorouracil (NSC19893), paclitaxel (NSC125973), vemurafenib (NSC761431), panobinostat (NSC761190), R-306465 (JNJ-16241199; NSC773264), adavosertib (NSC754352), TP-3654 (NSC805149), carboplatin (NSC241240), KSQ-4279 (NSC840948), and staurosporine (NSC755774) were obtained from the National Cancer Institute (NCI) Developmental Therapeutics Program Chemical Repository (34). The FDA-approved anticancer drug set is available from the NCI Developmental Therapeutics Program. […] The stock solutions were prepared in dimethyl sulfoxide (DMSO, Sigma-Aldrich, St. Louis, MO, cat. D2650) at 800-fold the tested concentration and stored at -70 degrees C prior to their use. All drugs and investigational agents were tested over a range starting from a high concentration at or near the clinical Cmax and decreasing in half-log increments. If the clinical Cmax for an agent had not been determined, the highest concentration tested was 10 microM.
2.3 Cell Culture. All cells were maintained in an incubator at 37 degrees C and 5% CO2 with 95% humidity. The PDC lines were cultured according to standard operating procedures established by the NCI PDMR. All PDCs were thawed and cultured in Matrigel-coated flasks prepared with a working solution of 1X Ham's F-12 nutrient mix, without supplementation (Invitrogen, cat. 11765054), 100 U/mL penicillin-streptomycin (Invitrogen, cat. 15140122), and 2.5% Matrigel (Corning Inc., cat. 354248) for the first three passages. The 857933-349-R-J2-PDC line was cultured in 6C/Colon 1B media, which includes advanced DMEM/F-12 (Thermo Fisher Scientific, cat. 12634028), 10 mM HEPES (Thermo Fisher Scientific, cat. 15630080), 1X GlutaMAX supplement (Thermo Fisher Scientific, cat. 35050061), 0.1 mg/mL primocin (InvivoGen, cat. ant-pm-2), 10% defined fetal bovine serum, heat inactivated (HyClone Laboratories Inc., cat. SH30070.03HI), 50% L-WRN conditioned media (ATCC, cat. CRL-3276), 1.25 mM N-Acetyl-L-cysteine (Sigma-Aldrich, cat. A9165), 10 mM nicotinamide (Sigma-Aldrich, cat. N0636), 1X B-27 supplement (Thermo Fisher Scientific, cat. 17504044), 1X N-2 supplement (Thermo Fisher Scientific, cat. 17502048), 10 microM Y-27632 dihydrochloride (Tocris Bioscience, cat. 1254), and 50 ng/mL human EGF recombinant protein (Thermo Fisher Scientific, cat. PHG0311). The 485176-168-R4-J1-PDC line was cultured in Panc media, which includes all 6C/Colon 1B media components plus 100 ng/mL human FGF-10 (Thermo Fisher Scientific, cat. 100-26), 500 nM SB-431542 (Selleckchem, cat. S1067), and gastrin (Tocris, cat. 3006).
[…]

[1] = second compound 0.0316 µM, first compound 0.0316 µM
[2] = second compound 0.0316 µM, first compound 0.1 µM
[3] = second compound 0.0316 µM, first compound 0.316 µM
[4] = second compound 0.0316 µM, first compound 1 µM
[5] = second compound 0.0316 µM, first compound 3.16 µM
[6] = second compound 0.0316 µM, first compound 10 µM
[7] = second compound 0.1 µM, first compound 0.0316 µM
[8] = second compound 0.1 µM, first compound 0.1 µM
[9] = second compound 0.1 µM, first compound 0.316 µM
[10] = second compound 0.1 µM, first compound 1 µM
[11] = second compound 0.1 µM, first compound 3.16 µM
[12] = second compound 0.1 µM, first compound 10 µM
[13] = second compound 0.316 µM, first compound 0.0316 µM
[14] = second compound 0.316 µM, first compound 0.1 µM
[15] = second compound 0.316 µM, first compound 0.316 µM
[16] = second compound 0.316 µM, first compound 1 µM
[17] = second compound 0.316 µM, first compound 3.16 µM
[18] = second compound 0.316 µM, first compound 10 µM
[19] = second compound 1 µM, first compound 0.0316 µM
[20] = second compound 1 µM, first compound 0.1 µM
[21] = second compound 1 µM, first compound 0.316 µM
[22] = second compound 1 µM, first compound 1 µM
[23] = second compound 1 µM, first compound 3.16 µM
[24] = second compound 1 µM, first compound 10 µM
[25] = second compound 3.16 µM, first compound 0.0316 µM
[26] = second compound 3.16 µM, first compound 0.1 µM
[27] = second compound 3.16 µM, first compound 0.316 µM
[28] = second compound 3.16 µM, first compound 1 µM
[29] = second compound 3.16 µM, first compound 3.16 µM
[30] = second compound 3.16 µM, first compound 10 µM
[31] = second compound 10 µM, first compound 0.0316 µM
[32] = second compound 10 µM, first compound 0.1 µM
[33] = second compound 10 µM, first compound 0.316 µM
[34] = second compound 10 µM, first compound 1 µM
[35] = second compound 10 µM, first compound 3.16 µM
[36] = second compound 10 µM, first compound 10 µM

With `C=CC(=O)N1CCN(c2nc(=O)n(-c3c(C)ccnc3C(C)C)c3nc(-c4c(O)cccc4F)c(F)cc23)C(C)C1` (centres undefined) + Cc1cnc(CNC(=O)c2c(=O)c3ccc(N4CCCN(C)CC4)nc3n3c2sc2ccccc23)cn1 the IC50 (second compound 0.0316 µM) was > 10 µM, the IC50 (second compound 0.1 µM) was > 10 µM and the IC50 (second compound 0.316 µM) was > 10 µM. The IC50 (second compound 1 µM) was < 0.0316 µM, the IC50 (second compound 3.16 µM) was < 0.0316 µM and the IC50 (second compound 10 µM) was < 0.0316 µM. The viability, T/C [1] was 92.7%, the viability, T/C [2] was 82.8% and the viability, T/C [3] was 103%. For the same molecule, the viability, T/C [4] was 103%, the viability, T/C [5] was 123% and the viability, T/C [6] was 106%. For the same molecule, the viability, T/C [7] was 62.4%, the viability, T/C [8] was 66.6% and the viability, T/C [9] was 76.5%. For the same molecule, the viability, T/C [10] was 77.1%, the viability, T/C [11] was 85.4% and the viability, T/C [12] was 70%. For the same molecule, the viability, T/C [13] was 61.9%, the viability, T/C [14] was 54.8% and the viability, T/C [15] was 56.5%. For the same molecule, the viability, T/C [16] was 65.9%, the viability, T/C [17] was 66.9% and the viability, T/C [18] was 59.3%. The viability, T/C [19] was 50%, the viability, T/C [20] was 46.1% and the viability, T/C [21] was 48.7%. For the same molecule, the viability, T/C [22] was 51.6%, the viability, T/C [23] was 56.3% and the viability, T/C [24] was 46.7%. It also gave a viability, T/C [25] of 40.7%, a viability, T/C [26] of 38.4% and a viability, T/C [27] of 42.5%. It also gave a viability, T/C [28] of 45.6%, a viability, T/C [29] of 47% and a viability, T/C [30] of 41.2%. The viability, T/C [31] was 0.28%, the viability, T/C [32] was 2.73% and the viability, T/C [33] was 1.23%. For the same molecule, the viability, T/C [34] was 2.1%, the viability, T/C [35] was 3.34% and the viability, T/C [36] was 0.29%.

`CC(C)n1c(=O)n(C)c2cnc3cc(F)c(-c4ccc(OCCCN5CCCCC5)nc4)cc3c21` + Cc1cnc(CNC(=O)c2c(=O)c3ccc(N4CCCN(C)CC4)nc3n3c2sc2ccccc23)cn1 was tested, and the IC50 (second compound 0.0316 µM) was > 10 µM, the IC50 (second compound 0.1 µM) was > 10 µM and the IC50 (second compound 0.316 µM) was 3.88 µM. For the same molecule, the IC50 (second compound 1 µM) was < 0.0316 µM, the IC50 (second compound 3.16 µM) was < 0.0316 µM and the IC50 (second compound 10 µM) was < 0.0316 µM. It also gave a viability, T/C [1] of 56.4%, a viability, T/C [2] of 51.5% and a viability, T/C [3] of 55.8%. For the same molecule, the viability, T/C [4] was 59%, the viability, T/C [5] was 59.9% and the viability, T/C [6] was 48.9%. The viability, T/C [7] was 55%, the viability, T/C [8] was 55.5% and the viability, T/C [9] was 52.6%. It also gave a viability, T/C [10] of 60.2%, a viability, T/C [11] of 64.7% and a viability, T/C [12] of 46.2%. For the same molecule, the viability, T/C [13] was 52%, the viability, T/C [14] was 57% and the viability, T/C [15] was 52.2%. For the same molecule, the viability, T/C [16] was 50.9%, the viability, T/C [17] was 54.1% and the viability, T/C [18] was 35.5%. For the same molecule, the viability, T/C [19] was 39.6%, the viability, T/C [20] was 44.3% and the viability, T/C [21] was 48.4%. The viability, T/C [22] was 46.4%, the viability, T/C [23] was 48.8% and the viability, T/C [24] was 32.9%. It also gave a viability, T/C [25] of 37.7%, a viability, T/C [26] of 41.1% and a viability, T/C [27] of 42%. For the same molecule, the viability, T/C [28] was 43.5%, the viability, T/C [29] was 39.9% and the viability, T/C [30] was 31.5%. It also gave a viability, T/C [31] of 0.24%, a viability, T/C [32] of 8.78% and a viability, T/C [33] of 32.2%. The viability, T/C [34] was 23%, the viability, T/C [35] was 1.78% and the viability, T/C [36] was 1.16%.
